pIC50: −log10 of the molar value. Where two headings read alike, the source gives them in different places.
Target: T1, human nAChRα6-α3 chimera, in addition to β2 and β3^V273S subunits (Homo sapiens, UniProt P32297+Q15825)
T1 construct: expressed in transfected cells
Assay: fluorescence-based calcium assay: inhibition of nicotine stimulated nAChRα6 activity (FLIPR)
Settings: HEK cell line stably expressing the receptor, 10 min pre-incubation, nicotine EC80, 10-point curve, duplicate wells; for pIC50: read-out: IC50
Method in brief: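 HEK cells stably expressing the human α6-α3 chimera with β2 and β3^V273S were loaded with calcium dye at 30° C. Compounds were pre-incubated for 10 min before nicotine at EC80, and the fluorescence change was read on a FLIPR. Ten-point half-log concentration-response, duplicate wells.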

T1 sequence (Q05901 25-458 V273S): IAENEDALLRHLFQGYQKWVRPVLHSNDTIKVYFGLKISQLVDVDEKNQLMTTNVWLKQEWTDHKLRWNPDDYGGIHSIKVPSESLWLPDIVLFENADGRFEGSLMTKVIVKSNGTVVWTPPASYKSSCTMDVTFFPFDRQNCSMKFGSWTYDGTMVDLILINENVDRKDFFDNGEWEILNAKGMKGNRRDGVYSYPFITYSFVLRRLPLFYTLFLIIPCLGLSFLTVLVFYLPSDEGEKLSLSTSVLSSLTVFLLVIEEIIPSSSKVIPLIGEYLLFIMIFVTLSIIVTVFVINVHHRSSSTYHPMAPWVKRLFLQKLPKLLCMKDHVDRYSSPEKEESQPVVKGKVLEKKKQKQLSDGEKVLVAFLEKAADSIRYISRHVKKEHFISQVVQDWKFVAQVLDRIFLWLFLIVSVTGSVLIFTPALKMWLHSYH
T1 sequence (P17787 26-502, stated change not applied, further chain): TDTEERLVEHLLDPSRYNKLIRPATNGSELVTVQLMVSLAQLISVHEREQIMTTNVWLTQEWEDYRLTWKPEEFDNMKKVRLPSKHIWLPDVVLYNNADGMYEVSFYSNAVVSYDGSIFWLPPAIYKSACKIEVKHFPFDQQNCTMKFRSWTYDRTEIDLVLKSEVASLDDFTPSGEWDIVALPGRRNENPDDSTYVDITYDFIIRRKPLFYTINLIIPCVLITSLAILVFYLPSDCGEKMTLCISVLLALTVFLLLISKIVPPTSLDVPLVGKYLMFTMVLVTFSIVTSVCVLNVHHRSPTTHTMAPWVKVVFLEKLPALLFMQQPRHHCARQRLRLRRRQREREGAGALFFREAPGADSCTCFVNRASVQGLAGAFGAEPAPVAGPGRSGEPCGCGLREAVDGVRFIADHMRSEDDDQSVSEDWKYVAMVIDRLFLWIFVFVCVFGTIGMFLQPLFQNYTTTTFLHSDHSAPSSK
T1 sequence (Q15825+P32297 fused with the stated changes): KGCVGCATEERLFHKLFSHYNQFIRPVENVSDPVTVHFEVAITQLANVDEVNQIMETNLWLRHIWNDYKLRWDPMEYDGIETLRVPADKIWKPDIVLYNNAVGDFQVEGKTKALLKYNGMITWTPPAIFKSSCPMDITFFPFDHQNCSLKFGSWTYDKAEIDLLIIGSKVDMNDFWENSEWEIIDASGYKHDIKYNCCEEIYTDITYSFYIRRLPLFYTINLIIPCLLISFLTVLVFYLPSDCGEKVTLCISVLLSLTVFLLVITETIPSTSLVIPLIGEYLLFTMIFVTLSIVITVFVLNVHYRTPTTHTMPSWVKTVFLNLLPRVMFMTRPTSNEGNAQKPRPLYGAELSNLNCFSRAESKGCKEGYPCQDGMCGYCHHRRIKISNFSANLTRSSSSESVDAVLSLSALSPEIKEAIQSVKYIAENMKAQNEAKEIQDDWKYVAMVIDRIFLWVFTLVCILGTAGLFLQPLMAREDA

| Compound | IC50 (IC50 (μM)) [µM] | pIC50 |
| --- | --- | --- |
| Cc1nc(NC[C@@H]2CCCCN2)ncc1-c1ccc(C(F)(F)F)cc1F [Example 104b, (S)-5-(2-fluoro-4-(trifluoromethyl)phenyl)-4-methyl-N-(2-piperidinylmethyl)pyrimidin-2-amine] | 0.045 | – |
| COc1ccc(-c2cnc(NC3CCCC(N(C)C)C3)nc2C#N)c(F)c1 (single isomer, unassigned) [Example 56b, 2-((3-(dimethylamino)cyclohexyl)amino)-5-(2-fluoro-4-methoxyphenyl) pyrimidine-4-carbonitrile] | – | 6.79 |
| COc1ccc(-c2cnc(NC3CCCOC3)nc2C)c(F)c1 (stereo not shown) [Example 46, 5-(2-fluoro-4-methoxyphenyl)-4-methyl-N-(tetrahydro-2H-pyran-3-yl) pyrimidin-2-amine] | – | 5.66 |
| COc1ccc(-c2nnc(NC3CCCN(C(C)C)C3)nc2C)c(F)c1 (single isomer, unassigned) [Example 76a, 6-(2-fluoro-4-methoxyphenyl)-N-(1-isopropylpiperidin-3-yl)-5-methyl-1,2,4-triazin-3-amine] | – | 6.93 |
| COc1ccc(-c2cnc(NCC3CCCCN3C)nc2C#N)c(F)c1 (stereo not shown) [Example 25, 5-(2-fluoro-4-methoxyphenyl)-2-(((1-methylpiperidin-2-yl)methyl)amino) pyrimidine-4-carbonitrile] | – | 7.47 |
| Cc1nc(NC2CCN3CCCC23)ncc1-c1ccc(OC(F)(F)F)cc1F (single isomer, unassigned) [Example 97a, N-(5-(2-fluoro-4-(trifluoromethoxy)phenyl)-4-methyl-pyrimidin-2-yl)hexahydro-1H-pyrrolizin-1-amine] | – | 6.74 |
| Cc1nc(NCC2CCCN(C)C2)ncc1-c1ccc(C(F)(F)F)cc1F (stereo not shown) [Example 107, 5-(2-fluoro-4-(trifluoromethyl)phenyl)-4-methyl-N-((1-methyl-3-piperidinyl)methyl)pyrimidin-2-amine] | – | 6.81 |
| COc1ccc(-c2cnc(NC3CCOCC3)nc2C)c(F)c1 [Example 45, 5-(2-fluoro-4-methoxyphenyl)-4-methyl-N-(tetrahydro-2H-pyran-4-yl) pyrimidin-2-amine] | – | 5.88 |
| COc1ccc(-c2cnc(NCC3CCCCN3C(C)C)nc2C)c(F)c1 (stereo not shown) [Example 50, 5-(2-fluoro-4-methoxyphenyl)-N-((1-isopropylpiperidin-2-yl)methyl)-4-methyl-pyrimidin-2-amine] | – | 6.99 |
| CN(C)C1CCCC(Nc2ncc(-c3ccc(F)cc3)cn2)C1 (stereo not shown) [Example 7, N^1-(5-(4-fluorophenyl)pyrimidin-2-yl)-N^3,N^3-dimethylcyclohexane-1,3-diamine] | – | 6.23 |
| Cc1nc(N[C@H]2CCNC[C@@H]2F)ncc1-c1ccc(C(F)(F)F)cc1F [Example 124, 5-(2-fluoro-4-(trifluoromethyl)phenyl)-N-((3S,4S)-3-fluoropiperidin-4-yl)-4-methyl-pyrimidin-2-amine] | – | 6.04 |
| Cc1nc(NC[C@H]2CCCN2CC(F)(F)F)ncc1-c1ccc(F)cc1F [Example 95a, (R)-5-(2,4-difluorophenyl)-4-methyl-N-((1-(2,2,2-trifluoroethyl)pyrrolidin-2-yl)methyl)pyrimidin-2-amine] | – | 7.32 |
| CN1CCCCC1CNc1ncc(-c2ccc(F)cc2)cn1 (stereo not shown) [Example 8, 5-(4-fluorophenyl)-N-((1-methylpiperidin-2-yl)methyl)pyrimidin-2-amine] | – | 6.54 |
| Cc1nc(NC[C@H]2CCCN2)ncc1-c1ccc(C(F)(F)F)cc1F [Example 102, (R)-5-(2-fluoro-4-(trifluoromethyl)phenyl)-4-methyl-N-(pyrrolidin-2-ylmethyl)pyrimidin-2-amine] | – | 8.30 |
| Cc1nc(NC2CCN(C(C)C)C2)ncc1-c1ccc(F)cc1F (stereo not shown) [Example 22, 5-(2,4-difluorophenyl)-N-(1-isopropylpyrrolidin-3-yl)-4-methyl-pyrimidin-2-amine] | – | 7.30 |
| COc1ccc(-c2cnc(NC3CCN(C(C)C)CC3)nc2C#N)c(F)c1 [Example 81, 5-(2-fluoro-4-methoxyphenyl)-2-((1-isopropylpiperidin-4-yl)amino) pyrimidine-4-carbonitrile] | – | 7.01 |

— patent publication US20240059677A1, “SUBSTITUTED PYRIMIDINE DERIVATIVES AS NICOTINIC ACETYLCHOLINESTERASE RECEPTOR ALPHA 6 MODULATOR” (priority 2020, published 2024)
